Results from patent US20220002314A1 (priority 2018, published 2022).
Where two headings read alike, the source gives them in different places.

What was measured:
Human μ-opioid receptor = Human μ-opioid receptor (Homo sapiens, UniProt P35372); assay: biochemical; format: binding
[1] = biological target: Human α2δ-1 subunit of Cav2.2 calcium channel (Homo sapiens, UniProt P54289); assay: biochemical; format: binding
Human α2δ-1 subunit of Cav2.2 calcium channel, sequence (P54289 25-1103): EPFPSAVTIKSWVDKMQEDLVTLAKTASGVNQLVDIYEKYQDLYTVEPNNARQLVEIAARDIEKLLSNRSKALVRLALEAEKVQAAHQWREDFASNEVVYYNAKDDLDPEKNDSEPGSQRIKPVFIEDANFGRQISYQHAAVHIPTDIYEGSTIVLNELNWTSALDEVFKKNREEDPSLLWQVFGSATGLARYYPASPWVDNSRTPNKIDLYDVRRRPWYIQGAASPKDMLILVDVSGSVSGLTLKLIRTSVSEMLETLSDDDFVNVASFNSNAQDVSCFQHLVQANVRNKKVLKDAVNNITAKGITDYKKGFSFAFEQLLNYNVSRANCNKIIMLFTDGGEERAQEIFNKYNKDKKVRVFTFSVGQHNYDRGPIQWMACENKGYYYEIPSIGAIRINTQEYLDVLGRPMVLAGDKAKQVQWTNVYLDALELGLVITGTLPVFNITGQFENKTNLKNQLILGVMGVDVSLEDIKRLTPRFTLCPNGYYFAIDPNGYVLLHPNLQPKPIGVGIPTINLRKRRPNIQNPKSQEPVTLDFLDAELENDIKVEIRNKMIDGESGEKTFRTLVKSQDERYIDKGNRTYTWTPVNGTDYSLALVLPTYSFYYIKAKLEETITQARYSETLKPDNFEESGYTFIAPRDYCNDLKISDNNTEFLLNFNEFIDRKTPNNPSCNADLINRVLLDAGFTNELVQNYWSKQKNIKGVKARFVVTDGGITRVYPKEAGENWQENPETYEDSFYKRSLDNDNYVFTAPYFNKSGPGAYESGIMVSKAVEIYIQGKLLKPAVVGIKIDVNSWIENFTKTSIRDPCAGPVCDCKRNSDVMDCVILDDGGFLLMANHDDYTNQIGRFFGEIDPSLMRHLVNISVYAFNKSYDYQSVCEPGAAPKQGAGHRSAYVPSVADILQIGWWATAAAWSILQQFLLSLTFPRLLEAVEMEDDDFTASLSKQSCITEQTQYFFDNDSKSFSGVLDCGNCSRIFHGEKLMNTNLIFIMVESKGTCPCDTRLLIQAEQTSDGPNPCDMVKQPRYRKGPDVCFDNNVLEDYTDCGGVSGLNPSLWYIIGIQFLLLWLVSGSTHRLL

Human μ-opioid receptor, sequence (P35372 whole entry): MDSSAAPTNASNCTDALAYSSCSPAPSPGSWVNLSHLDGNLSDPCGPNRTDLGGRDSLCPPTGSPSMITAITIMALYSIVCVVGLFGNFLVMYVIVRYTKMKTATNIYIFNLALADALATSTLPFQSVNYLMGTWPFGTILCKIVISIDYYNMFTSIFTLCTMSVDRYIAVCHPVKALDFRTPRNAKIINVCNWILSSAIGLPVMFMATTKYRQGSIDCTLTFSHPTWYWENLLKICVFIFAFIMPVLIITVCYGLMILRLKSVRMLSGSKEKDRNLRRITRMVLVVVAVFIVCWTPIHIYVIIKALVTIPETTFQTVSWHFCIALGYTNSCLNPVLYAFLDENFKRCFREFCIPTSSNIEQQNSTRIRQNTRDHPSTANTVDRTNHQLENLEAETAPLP

`CCC[C@@H](c1nc2ccc(N3C[C@@H](C)OC4(CCN(CCc5ccccc5)CC4)C3)cc2c(=O)n1CC)N1C[C@@H](C)N[C@@H](C)C1` [Example 154, 2-((S)-1-((3S,5R)-3,5-Dimethylpiperazin-1-yl)butyl)-3-ethyl-6-((R)-2-methyl-9-phenethyl-1-oxa-4,9-diazaspiro[5.5]undecan-4-yl)quinazolin-4(3H)-one] showed a Ki (Human μ-opioid receptor) greater than 500 nM and a Ki [1] of less than 500 nM.
`CCC[C@H](c1nc2ncc(Br)cc2c(=O)n1CC1CC1)N1CCN[C@@H](C)C1` [Example 75, 6-bromo-3-(cyclopropylmethyl)-2-((R)-1-((S)-3-methylpiperazin-1-yl)butyl)pyrido[2,3-d]pyrimidin-4(3H)-one] gave a Ki (Human μ-opioid receptor) greater than 500 nM and a Ki [1] of less than 500 nM.
In the case of `CCCC(c1nc2cc(-c3ccncc3)ccc2c(=O)n1CC)N1C[C@@H](C)N[C@@H](C)C1` (stereo partly drawn) [Example 133, 2-(1-((3S,5R)-3,5-dimethylpiperazin-1-yl)butyl)-3-ethyl-7-(pyridin-4-yl)quinazolin-4(3H)-one], the Ki (Human μ-opioid receptor) is reported as greater than 500 nM and the Ki [1] is reported as less than 500 nM.
In the case of `CCCC(c1nc2cccc(O)c2c(=O)n1CC)N1C[C@@H](C)N[C@@H](C)C1` (stereo partly drawn) [Example 15, 2-(1-((3S,5R)-3,5-dimethylpiperazin-1-yl)butyl)-3-ethyl-5-hydroxyquinazolin-4(3H)-one], the Ki (Human μ-opioid receptor) is reported as greater than 500 nM and the Ki [1] is reported as less than 500 nM.
Work on `CCC[C@H](c1nc2ccc(Br)cc2c(=O)n1CC)[C@@H]1CCN[C@@H](C)C1` [Example 193, 6-bromo-3-ethyl-2-((S)-1-((2S,4R)-2-methylpiperidin-4-yl)butyl)quinazolin-4(3H)-one] yielded a Ki (Human μ-opioid receptor) greater than 500 nM and a Ki [1] greater than 5000 nM.
In the case of `CCC[C@@H](c1nc2ccccc2c(=O)n1CCOC)N1C[C@@H](C)N[C@@H](C)C1` [Example 124, 2-((S)-1-((3S,5R)-3,5-dimethylpiperazin-1-yl)butyl)-3-(2-methoxyethyl)quinazolin-4(3H)-one], the Ki (Human μ-opioid receptor) is reported as greater than 500 nM and the Ki [1] is reported as 500 to 5000 nM.
For `CCC[C@H](c1nc2ccc(Br)cc2c(=O)n1CC)[C@H]1CCNCC1(F)F` [Example 196, 6-bromo-2-((S)-1-((R)-3,3-difluoropiperidin-4-yl)butyl)-3-ethylquinazolin-4(3H)-one], the Ki (Human μ-opioid receptor) was greater than 500 nM and the Ki [1] was greater than 5000 nM.
With `CCCC(c1nc2cc(O)ccc2c(=O)n1C)N1C[C@@H](C)N[C@@H](C)C1` (stereo partly drawn) [Example 10, 2-(1-((3S,5R)-3,5-dimethylpiperazin-1-yl)butyl)-7-hydroxy-3-methylquinazolin-4(3H)-one] the Ki (Human μ-opioid receptor) was greater than 500 nM and the Ki [1] was less than 500 nM.
In the case of `CCC[C@H](c1nc2nc(C(F)(F)F)ccc2c(=O)n1CC)N1CCN[C@@H](C)C1` [Example 78, 3-ethyl-2-((R)-1-((S)-3-methylpiperazin-1-yl)butyl)-7-(trifluoromethyl)pyrido[2,3-d]pyrimidin-4(3H)-one], the Ki (Human μ-opioid receptor) is reported as greater than 500 nM and the Ki [1] is reported as less than 500 nM.
`CCC[C@H](c1nc2ncc(Br)cc2c(=O)n1CCC)N1CCN[C@@H](C)C1` [Example 72, 6-Bromo-2-((R)-1-((S)-3-methylpiperazin-1-yl)butyl)-3-propylpyrido[2,3-d]pyrimidin-4(3H)-one] showed a Ki (Human μ-opioid receptor) greater than 500 nM and a Ki [1] of less than 500 nM.
In the case of `CCC[C@@H](c1nc2ccccc2c(=O)n1C)N1C[C@@H](C)N[C@@H](C)C1` [Example 31, 2-((S)-1-((3S,5R)-3,5-dimethylpiperazin-1-yl)butyl)-3-methylquinazolin-4(3H)-one], the Ki (Human μ-opioid receptor) is reported as greater than 500 nM and the Ki [1] is reported as 500 to 5000 nM.
In the case of `CCCC(c1nc2ccc(Br)cc2c(=O)n1CC(=O)O)N1C[C@@H](C)N[C@@H](C)C1` (stereo partly drawn) [Example 126, 2-(6-bromo-2-(1-((3S,5R)-3,5-dimethylpiperazin-1-yl)butyl)-4-oxoquinazolin-3(4H)-yl)acetic acid], the Ki (Human μ-opioid receptor; read-out: μ-binding) is reported as greater than 500 nM and the Ki ([1]; read-out: α2δ-1 binding) is reported as greater than 5000 nM.
With `CCC[C@H](c1nc2ccc(F)cc2c(=O)n1C)N1CCN[C@@H](C)C1` [Example 205, 6-fluoro-3-methyl-2-((R)-1-((S)-3-methylpiperazin-1-yl)butyl)quinazolin-4(3H)-one] the Ki (Human μ-opioid receptor) was 100 to 500 nM and the Ki [1] was less than 500 nM.
With `CCC[C@@H](c1nc2ccc(Br)cc2c(=O)n1CC)N1CCN[C@H](C)C1` [Example 100, 6-bromo-3-ethyl-2-((S)-1-((R)-3-methylpiperazin-1-yl)butyl)quinazolin-4(3H)-one] the Ki (Human μ-opioid receptor) was greater than 500 nM and the Ki [1] was greater than 5000 nM.
`CCCC(c1nc2ccccc2c(=O)n1C)N1C[C@@H](C)N[C@@H](C)C1` (stereo partly drawn) [Example 2, 2-(1-((3S,5R)-3,5-dimethylpiperazin-1-yl)butyl)-3-methylquinazolin-4(3H)-one] showed a Ki (Human μ-opioid receptor) greater than 500 nM and a Ki [1] of less than 500 nM.
`CCCC(c1nc2cc(C(=O)NCc3ccccc3)ccc2c(=O)n1CC)N1C[C@@H](C)N[C@@H](C)C1` (stereo partly drawn) [Example 180, N-Benzyl-2-(1-((3S,5R)-3,5-dimethylpiperazin-1-yl)butyl)-3-ethyl-4-oxo-3,4-dihydroquinazoline-7-carboxamide] gave a Ki (Human μ-opioid receptor) greater than 500 nM and a Ki [1] of less than 500 nM.
`CCC[C@@H](c1nc2ccc(NCC[C@@]3(c4ccccn4)CCOC4(CCCC4)C3)cc2c(=O)n1CC)N1C[C@@H](C)N[C@@H](C)C1` [Example 158, 2-((S)-1-((3S,5R)-3,5-Dimethylpiperazin-1-yl)butyl)-3-ethyl-6-((2-((R)-9-(pyridin-2-yl)-6-oxaspiro[4.5]decan-9-yl)ethyl)amino)quinazolin-4(3H)-one] gave a Ki (Human μ-opioid receptor) greater than 500 nM and a Ki [1] of less than 500 nM.
`CCCC(c1nc2ccc(Br)c(F)c2c(=O)n1CC)N1C[C@@H](C)N[C@@H](C)C1` (stereo partly drawn) [Example 22, 6-bromo-2-(1-((3S,5R)-3,5-dimethylpiperazin-1-yl)butyl)-3-ethyl-5-fluoroquinazolin-4(3H)-one] gave a Ki (Human μ-opioid receptor) greater than 500 nM and a Ki [1] of less than 500 nM.
`CCC[C@@H](c1nc2ccc(O)cc2c(=O)n1CC)N1C[C@@H](C)N[C@@H](C)C1` [Example 36, 2-((S)-1-((3S,5R)-3,5-dimethylpiperazin-1-yl)butyl)-3-ethyl-6-hydroxyquinazolin-4(3H)-one] gave a Ki (Human μ-opioid receptor) greater than 500 nM and a Ki [1] of 500 to 5000 nM.
`CCC[C@@H](c1nc2ccncc2c(=O)n1CC)N1CCN[C@@H](C)C1` [Example 67, 3-ethyl-2-((S)-1-((S)-3-methylpiperazin-1-yl)butyl)pyrido[4,3-d]pyrimidin-4(3H)-one] was tested, and the Ki (Human μ-opioid receptor) was greater than 500 nM and the Ki [1] was greater than 5000 nM.
In the case of `CCCC(c1nc2c(Br)c(N(Cc3cccc(OC)c3)C(=O)OC(C)(C)C)ccc2c(=O)n1CC)N1C[C@@H](C)N[C@@H](C)C1` (stereo partly drawn) [Example 162, tert-Butyl (8-bromo-2-(1-((3S,5R)-3,5-dimethylpiperazin-1-yl)butyl)-3-ethyl-4-oxo-3,4-dihydroquinazolin-7-yl)(3-methoxybenzyl)carbamate], the Ki (Human μ-opioid receptor; read-out: μ-binding) is reported as greater than 500 nM and the Ki ([1]; read-out: α2δ-1 binding) is reported as 500 to 5000 nM.
With `CCCC(c1nc2ccc(Br)c(F)c2c(=O)n1CC)N1CCNCC1` (stereo not drawn) [Example 88, 6-bromo-3-ethyl-5-fluoro-2-(1-(piperazin-1-yl)butyl)quinazolin-4(3H)-one] the Ki (Human μ-opioid receptor) was greater than 500 nM and the Ki [1] was less than 500 nM.
`CCCC(c1nc2ccccc2c(=O)n1CCNC)N1C[C@@H](C)N[C@@H](C)C1` (stereo partly drawn) [Example 127, 2-(1-((3S,5R)-3,5-Dimethylpiperazin-1-yl)butyl)-3-(2-(methylamino)ethyl)quinazolin-4(3H)-one] showed a Ki (Human μ-opioid receptor; read-out: μ-binding) greater than 500 nM and a Ki [1] of 500 to 5000 nM.
`CCC[C@H](c1nc2ccc(Br)cc2c(=O)n1CC)N1CCN(C)[C@H](C)C1` [Example 109, 6-Bromo-2-((R)-1-((R)-3,4-dimethylpiperazin-1-yl)butyl)-3-ethylquinazolin-4(3H)-one] was tested, and the Ki (Human μ-opioid receptor) was 100 to 500 nM and the Ki [1] was less than 500 nM.
